Measured values: article PMC10610505, “Synthesis and Biological Evaluation of Some New 3-Aryl-2-thioxo-2,3-dihydroquinazolin-4(1H)-ones and 3-Aryl-2-(benzylthio)quinazolin-4(3H)-ones as Antioxidants; COX-2, LDHA, α-Glucosidase and α-Amylase Inhibitors; and Anti-Colon Carcinoma and Apoptosis-Inducing Agents” (Pharmaceuticals, 2023)
Like-named read-outs stand apart in the source and are kept apart here.

Assays:
[1] = test system: LoVo human colon carcinoma cells; experiment: Viability assay (LDH release), LoVo; type: cell-based; settings: Homo sapiens, LoVo, 48 h, read-out: Mean % of viable cells ± SD, LoVo
Protocol: (§1) The anticancer activities of all the synthesized compounds were assessed against two human colon carcinoma cell lines, namely LoVo and HCT-116 (Table 6), via the determination of the mean percents of the viable cancerous cells remaining after being incubated with 200 µg/mL of each test compound for 48 h using LDH assay.
(§2) The samples were diluted in Dulbecco’s Modified Eagle’s Medium, consisting of 10% fetal bovine serum (FBS), added to cells grown and cultured for 24 h in a 5% CO2-humidified incubator at 37 °C. Thereafter, the activity of lactate dehydrogenase released from damaged cells was determined in the collected supernatant aliquots using an ELISA end-point assay (Benchmark Plus, Bio-Rad, CA, USA); 0.1% Triton X-100 in the assay medium and the assay medium only were used as the positive and negative controls, respectively. Cell viability was expressed as a relative percentage of the OD values (at 550 nm) for compound-treated cells (final concentration of 200 µg /mL) and the negative control, which was shown as the mean % ± SD (n = 3). The results of the viability assays for the potential cytotoxic candidates were compared with the % of viable human umbilical vein endothelial cells (HUVEC) at the same concentration. These cells were grown in Dulbecco’s Modified Eagle’s Medium (PAN-Biotech; Barcelona, Spain) containing 10% FBS (Sigma Aldrich; St. Quentin-Fallavier, France), 2 mM Glutamine (Sigma Aldrich), 100 units/mL penicillin and […] streptomycin (Life Technologies; Paisley, UK).

[2] = molecular target: purified recombinant human LDHA protein (Homo sapiens, UniProt P00338); experiment: Lactate dehydrogenase A (LDHA) inhibitory assay; type: biochemical; settings: for Fold change of LDHA inhibition as compared to 0.1 mg/mL: % inhibition at 0.200 mg/mL divided by % inhibition at 0.100 mg/mL; for inhibition at 100 µg/mL: at 0.1 mg/mL; for inhibition at 100 µg/mL / inhibition at 200 µg/mL: read-out: LDHA mean % inhibition ± SD; for inhibition at 200 µg/mL: at 0.2 mg/mL
Protocol: The LDHA inhibitory effectiveness was investigated by measuring the amounts of consumed NADH [73]. […] The fluorescence of NADH, which has an excitation wavelength of 340 nm and an emission wavelength of 460 nm, was detected using a spectrofluorometer. […] The LDHA inhibitory efficiency was expressed as an inhibition percentage, which was determined via a comparison with the negative control experiments.

[3] = test system: HCT-116 human colon carcinoma cells; experiment: Viability assay (LDH release), HCT-116; type: cell-based; settings: Homo sapiens, read-out: Mean % of viable cells ± SD, HCT-116
Protocol: as §1, §2

[4] = molecular target: α-amylase; experiment: In vitro α-amylase (AA) inhibition assay; settings: mean ± SD of three replicates; for IC50: read-out: Mean IC50 α-Amylase (AA)
Protocol: Then, 180 µL of Labtest (the amylase substrate) was added and the samples were incubated for 8 min, followed by measuring the first reaction at 620 nm to obtain (X1). Afterwards, the reaction mixture was incubated for an additional 5 min at 37 °C; then, the second reaction was measured to obtain the final reading (X2). […] The results were expressed as IC50 µg/mL (as well as µM) and were determined from the standard curves.

[5] = molecular target: T1, COX-2 (Homo sapiens, UniProt P35354); experiment: COX-2 inhibitory screening assay (Cayman kit); type: biochemical; settings: for Increase in COX-2 inhibitory efficiency by duplicating the concentration: % inhibition at 0.200 mg/mL divided by % inhibition at 0.100 mg/mL; for inhibition at 100 µg/mL: at 0.100 mg/mL; for inhibition at 100 µg/mL / inhibition at 200 µg/mL: read-out: COX-2 mean % inhibition ± SD; for inhibition at 200 µg/mL: at 0.200 mg/mL
T1 construct: purchased Cayman Chemical Company 701080
T1 sequence (P35354 18-604): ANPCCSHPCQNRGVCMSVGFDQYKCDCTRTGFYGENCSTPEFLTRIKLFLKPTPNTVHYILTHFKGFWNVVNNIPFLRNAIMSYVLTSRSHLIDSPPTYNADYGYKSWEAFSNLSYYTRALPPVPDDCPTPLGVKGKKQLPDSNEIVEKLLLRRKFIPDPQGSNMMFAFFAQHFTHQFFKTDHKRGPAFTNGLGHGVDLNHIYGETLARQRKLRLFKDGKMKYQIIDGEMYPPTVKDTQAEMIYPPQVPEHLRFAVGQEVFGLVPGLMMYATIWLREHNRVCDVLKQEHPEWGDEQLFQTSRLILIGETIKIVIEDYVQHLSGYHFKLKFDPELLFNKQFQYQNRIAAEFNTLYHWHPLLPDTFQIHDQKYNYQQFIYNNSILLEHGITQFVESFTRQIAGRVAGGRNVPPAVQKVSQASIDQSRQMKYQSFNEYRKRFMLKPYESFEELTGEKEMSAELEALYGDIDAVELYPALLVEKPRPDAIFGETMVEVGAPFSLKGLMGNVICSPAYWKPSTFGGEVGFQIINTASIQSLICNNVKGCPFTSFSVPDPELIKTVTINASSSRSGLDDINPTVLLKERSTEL
Protocol: Each compound of the two series, 3a–h and 5a–h, was resuspended in 100% DMSO at a final concentration of 10 mg/mL. […] Briefly, 10 µL of the tested compound was added to a mixture of the reaction buffer solution (160 µL of 0.1 M Tris-HCl, pH 8.0, in the presence of 2 mM phenol and 5 mM EDTA), COX-2 (10 µL) and heme (10 µL). After a 10 min incubation at 37 °C, the reaction was started by adding arachidonic acid (10 µL), rapidly mixed and kept at 37 °C for 2 min. PGF2α generated via PGH2 reduction with stannous chloride (30 µL) was incubated at room temperature for 5 min. The PGF2α amount was then determined via an enzyme immunoassay. Prior to incubation with the COX-2 reaction (at room temperature 18 h), the 96-well plate was previously coated with a mouse anti-rabbit monoclonal antibody. Unbound reagents were removed by washing the plate followed by adding Ellman’s reagent to the well. The reaction product displaying a distinct yellow color was measured at 410 nm using a UV microplate reader. The % inhibition was calculated by comparing the PGF2α produced in the compound-treated samples with a control sample, using the following equation: % inhibition is equal to [([PGF2α]control − [PGF2α]sample) /[PGF2α ]control ] × 100. […] The COX-2 inhibitory efficiency was expressed as an inhibition percentage, which was determined via a comparison with the negative control experiments.

[6] = DPPH radical scavenging assay; type: biochemical; settings: for Mean IC50 for scavenging initial DPPH radicals: mean ± SD of three replicates; for IC50: mean ± SD, converted from mg/mL, read-out: Mean IC50 for scavenging initial DPPH radicals (converted)
Description: In principle, the antioxidant power of a compound in this assay is correlated to its tendency to reduce the stable, purple-colored DPPH radical through a hydrogen atom transfer (HAT) mechanism and/or a single electron transfer mechanism, thereby converting it to the yellow-colored 2,2-diphenyl-1-picrylhydrazine, whereby this reduction is accompanied by a depletion in the amount of the initial DPPH radicals and a change in the absorbance of the test solution accordingly, which can be detected relative to the blank solution at λ = 517 nm.
The antioxidant potencies of all synthesized compounds were investigated using a 1,1 diphenyl-2-picrylhydrazyl (DPPH) radical scavenging assay according to the protocol described by Bersuder et al.. In brief, a 0.5 mL volume of DPPH ethanolic solution was mixed with an equal volume of each sample concentration (i.e., the test compound or butylated hydroxytoluene, BHT, which was used as the reference antioxidant in the positive control experiment), shaken strongly, and incubated at room temperature for 1 h in darkness. The absorbance of the residual DPPH radicals was measured at λ = 519 nm and compared to the negative control (without the test compound or reference antioxidant). The DPPH radical scavenging power was calculated using the following formula: scavenging efficiency (%) = (1 − Acompound/AControl) × 100, where Acompound and Acontrol are the absorbance of the tested compound and the negative control, respectively. […] Additionally, the ± SD values were calculated from three independent triplicate measurements.

Row | Structure (SMILES) | viability at 200 µg/mL [1] [%] | Fold change of LDHA inhibition as compared to 0.1 mg/mL [2] [fold] | inhibition at 100 µg/mL [2] [%] | inhibition at 200 µg/mL [2] [%] | viability at 200 µg/mL ([3]; HCT-116, 48 h) [%] | Mean IC50 α-Amylase (AA) [4] [µg/mL] | IC50 [4] [µM] | Increase in COX-2 inhibitory efficiency by duplicating the concentration [5] [fold] | inhibition at 100 µg/mL [5] [%] | inhibition at 200 µg/mL [5] [%] | Mean IC50 for scavenging initial DPPH radicals [6] [µg/mL] | IC50 [6] [µM] | viability at 200 µg/mL ([1]; 200 µg/mL) [%] | viability at 200 µg/mL ([3]; HCT-116, 200 µg/mL, 48 h) [%]
1 | COc1cc2[nH]c(=S)n(-c3ccc([N+](=O)[O-])cc3)c(=O)c2cc1OC [Compound 3h, 6,7-Dimethoxy-3-(4-nitro-phenyl)-2-thioxo-2,3-dihydro-1H-quinazolin-4-one] | 64 ± 3 | 1.47 | 29.9 ± 1.77 | 43.9 ± 1.56 | 70.3 ± 3.79 | 122.000 ± 4.583 | 339 | 1.900 | 14.6 ± 0.636 | 27.6 ± 2.19 | 325 ± 7 | 904 | – | –
2 | O=c1c2cc(Br)ccc2nc(SCc2cccc([N+](=O)[O-])c2)n1-c1ccc([N+](=O)[O-])cc1 [Compound 5g, 2-(3-Nitro-benzylsulfanyl)-6-bromo-3-(4-nitro-phenyl)-3H-quinazolin-4-one] | 74.7 ± 2.52 | 1.75 | 15.8 ± 2.05 | 27.7 ± 2.55 | 66.3 ± 3.06 | 339.000 ± 4.000 | 660 | 1.83 | 14.2 ± 1.77 | 26 ± 2.83 | 200 ± 14 | 390 | – | –
3 | COc1cc2nc(SCc3ccc(Cl)cc3)n(-c3ccc([N+](=O)[O-])cc3)c(=O)c2cc1OC [Compound 5h, 2-(4-Chloro-benzylsulfanyl)-6,7-dimethoxy-3-(4-nitro-phenyl)-3H-quinazolin-4-one] | – | 1.42 | 15.3 ± 1.2 | 21.8 ± 1.34 | – | 117.667 ± 3.055 | 243 | 2.58 | 11.2 ± 0.99 | 28.9 ± 0.283 | 364 ± 20 | 752 | 81.7 ± 3.06 | 91 ± 2.65
